# From patent US8642656B2, “Calixarene-based peptide conformation mimetics, methods of use, and methods of making” (priority 2004, dated 2014)
# Like-named read-outs stand apart in the source and are kept apart here. Ends that are not written are not given here.
# Legend:
# EC [1] = experiment: EC % apoptosis (Table 1); format: cell-based, human
# SCK = experiment: Other cells, SCK (Table 1); format: cell-based
# MA148 = experiment: Other cells, MA148 (Table 1); format: cell-based, human
# EC [2] = experiment: EC % total cell death (Table 1); format: cell-based, human
# E. coli J96 = experiment: Bactericidal assay on J96; format: cell-based; conditions: read-out: Bacterial activity on J96 IC50 (conc)
# Text: Pseudomonas aeruginosa type 1 is a clinical, smooth strain isolate stereotyped by using the scheme of Homma et al., Japan. J. Exp. Med. 46, 329-336 (1976) and maintained in the lab by monthly transfer on blood agar plates. E. coli J96, IA2, and H5 are smooth strain, uropathogenic clinical isolates kindly maintained and provided by J. R. Johnson and described in Johnson et al., J. Infect. Disease 173, 920-926 (1996) for J96 and IA2 and in Johnson et al., J. Infect. Disease 173, 746-749 (1996) for H5. J5 is an E. coli rough strain initially referenced by G. R. Siber and discussed in Warren et al., Infect. Immunity 55, 1668-1673 (1987) and is analogous to the smooth strain E. coli 0111:B4 used in the BioWhittaker LAL endotoxin detection and quantitation kit described below. Gram-positive MN8 and MNHO are two patient isolates of Staphylococcus aureus, which were kindly provided by P. M. Schlievert and described in Bohach et al., Rev. Infect. Diseases 11, 75-82 (1989) for MNHO and in Schlievert et al., J. Infect. Diseases 147, 236-242 (1983) for MN8. All cultures are maintained on nutrient agar plates.
# Pyrogen-free solutions were used throughout the assay. Log phase bacteria were obtained by transferring an overnight culture or scraping crystals off-85° C glycerol stocks of overnight cultures. Bacteria were washed and resuspended in 0.9% sodium chloride with adjustment to an optical density at 650 nm which yields 3×10^8 CFU/ml. Bacteria were then diluted 1:10 in 0.08 M citrate phosphate buffer, pH 7.0 (prepared by mixing 0.08 M citric acid with 0.08 M dibasic sodium phosphate). Bacteria (0.15 ml) were incubated with the test compound in a final volume of 1.0 ml of buffer. The assay was done in 17×100 polypropylene tubes in a reciprocal water bath shaker at 37° C for 30 minutes. Following this 30 minute (min) incubation. 10-fold dilutions were made in 0.9% sodium chloride. Dilutions were done to 10^−4 and 20 μl of each dilution was streaked across an agar plate. Gram-positive organisms were plated on nutrient agar plates containing 2% agar and Gram-negative organisms were plated on MacConkey agar (2%). Plates were incubated overnight at 37° C and counted the next morning. The dilution containing 10-100 bacteria was counted and the number multiplied by 50 to adjust all counts to the number bacteria killed per milliliter. Compound concentrations were converted to logarithm base ten and graphed. Bactericidal activity was determined by dose response where LD50 values were determined by best fits of a sigmoidal curve to the dose response data.
# Hemolysis (Table 1) = format: cell-based; conditions: at 10^−5 M
# Fibro = experiment: Other cells, Fibro (Table 1); format: cell-based
# Solubility (Table 1) = format: physicochemical; conditions: H2O, at pH <7.0, r.t.
# endothelial cell (EC) = experiment: EC Proliferation Assay, [3H]thymidine incorporation (Example 36, Table 1); format: cell-based; conditions: read-out: EC proliferation IC50 (conc)
# Description: Human umbilical vein derived EC(HUVEC) were harvested from normal human umbilical cords by perfusion with 0.125% trypsin/EDTA as described in Groenewegen et al., J. Exp. Med. 164, 131-143 (1986). For determination of quiescent EC phenotype isolated ECs were immediately fixed in 1% paraformaldehyde. Human microvascular ECs (MVECs) were isolated. ECs were cultured in fibronectin coated tissue culture flasks in culture medium (RPMJ-1640 with 20% human serum (HS), supplemented with 2 mM glutamine and 100 U/ml penicillin and 0.1 mg/ml streptomycin).
# EC proliferation was measured using a [^3H]thymidine incorporation assay. ECs were seeded at 5000 cells/well in flatbottomed tissue culture plates and grown for 3 days, in the absence or presence of regulators, in culture medium. During the last 6 hours of the assay, the culture was pulsed with 0.5μ Ci [methyl-^3H]thymidine/well.
# B16F10 tumor cells = experiment: Proliferation of B16F10 tumor cells; format: cell-based, murine
# B16F10 tumor vessels = experiment: Histological analysis of microvessel density, anti-CD31 staining, B16F10 tumors; format: in vivo, mice; conditions: B16F10, 10 mg/kg; mean ± standard error, 20 images
# Description: (§1) Immunohistochemistry was used to assess microvessel density and the extent of total cell apoptosis. Approximately, tumors of the same size and with no apparent necrosis were selected for processing. On the last day of treatment mice were sacrificed and tumors were excised. Tumor tissue was embedded in tissue freezing medium (Miles Inc, Elkart, Ind.) and shock frozen in liquid nitrogen. Sections of tissue (10 μm thickness) were prepared for immunohistochemical analysis. For this, tissue sections were brought to room temperature, air dried overnight, and then fixed in acetone for 10 minutes. Slides were allowed to air dry for at least 30 minutes and were washed three limes for 5 minutes each in phosphate-buffered saline (PBS, pH 7.4). Samples were then blocked with PBS containing 0.1% bovine serum albumin and 3% human serum albumin for at least 30 minutes at room temperature in a humidified box. Samples were subsequently incubated with phycoerytrin (PE)-conjugated monoclonal antibody to CD31 (PECAM-1) in a 1:50 dilution (Pharmigen, San Diego, Calif.) to stain for microvessel density.
# (§2) Digital images were stored and processed using Adobe Photoshop (Adobe Inc., Mountain View Calif.). Quantification of microvessel density, were determined as described previously (Dings et al., Cancer Res 63, 382-385 (2003)). Statistical analysis was performed using the Student's t-test.
# MA148 tumor = experiment: TUNEL staining for total cell apoptosis, MA148 tumors; format: in vivo, mice; conditions: MA148, 10 mg/kg; mean ± standard error, 20 images
# Description: (§3) To assess the extent of total cell apoptosis, tumor tissue sections were stained by using the TUNEL (terminal deoxyribonucleotidyl transferase-mediated dUTP-nick-end labeling) assay, which was performed according to the manufacturer's instructions (In situ cell death detection kit, fluorescein; TUNEL, Roche). After 1-hour incubation at room temperature, slides were washed with PBS and immediately imaged using an Olympus BX-60 fluorescence microscope at 200× magnification.
# MA148 tumor vessels = experiment: Histological analysis of microvessel density, anti-CD31 staining, MA148 tumors; format: in vivo, mice; conditions: MA148, 10 mg/kg; mean ± standard error, 20 images
# Description: as §1, §2
# LPS from K. pneumoniae = experiment: LPS neutralization assay (Limulus amoebocyte lysate, QCL-1000); format: biochemical, Klebsiella pneumoniae; conditions: read-out: IC50 values (μM) for LPS binding, Klebsiella
# Text: (§4) The ability of compounds to neutralize endotoxin was detected in vitro by using the chromogenic QCL-1000 kit from BioWhittaker, Inc. (Walkersville, Md.), and as described in their protocol. This Limulus amoebocyte lysate (LAL) assay is quantitative for Gram negative bacterial endotoxin (lipopolysaccharide, LPS). In this assay compounds that are active inhibit the LPS-mediated activation of a proenzyme whose active form would release p-nitroaniline (pNA) from a colorless synthetic substrate producing a yellow color (pNA) whose absorption is monitored spectrophotometrically at 405-410 nm. The initial rate of enzyme activation is proportional to the concentration of endotoxin present.
# (§5) Variants of LPS from six Gram negative bacteria were used: E. coli serotypes 0111:B4 (Combrex, Walkersville, Md.) and 055:B5 (Sigma, St. Louis, Mo.); Klebsiella pneumoniae (List Biologies, San Jose, Calif.); Pseudomonas aeruginosa (List Biologies, San Jose, Calif.); Salmonella typhimurium (List Biologies, San Jose, Calif.), and Serratia marcascens (List Biologies, San Jose, Calif.). The concentration of compound required to neutralize a given LPS and therefore to inhibit the Limulus amoebocyte lysate driven by 0.04 units of any given LPS was determined by dose response curves fit by using a standard sigmoidal function to determined the JC50 value for each lopomimetic compound. The 0.04 units corresponds to 0.01 ng LPS from E. coli serotype 055:B5, 0.01 ng LPS from E. coli serotype 0111:B4, 0.003 ng LPS from K. pneumoniae, 0.01 ng LPS from P. aeruginosa, 0.03 ng LPS from S. typhimurium, and 0.03 ng LPS from S. marcascens.
# [3] = Hematocrit levels, first (MA148) study; format: in vivo, mice; conditions: 10 mg/kg; last day of treatment; vehicle 47±5.7
# Description: (§6) As an indirect measurement of general toxicity, body weights of mice were monitored twice weekly, using a digital balance (Ohaus Florham, N.J.). To determine hematocrit levels, blood samples were extracted by tail vein bleedings one day after terminating treatment, and blood was collected in heparinized micro-hematocrit capillary lubes (Fisher Pittsburgh, Pa.). Samples were spun down for 10 minutes in a micro-hematocrit centrifuge (Clay-Adams; NY), and the amount of hematocrit was determined using an international microcapillary reader (IEC; Needham, Mass.).
# [4] = Toxicity assays in tumor-bearing mice: behavior, body weight, organ morphology; format: in vivo; conditions: all in vivo tumor experiments
# Description: as §6
# [5] = test system: MA148 human ovarian carcinoma; conditions: 10 mg/kg/day; Dings et al., Cancer Lett 194; cited from earlier work
# B16F10 tumor = experiment: TUNEL staining for total cell apoptosis, B16F10 tumors; format: in vivo, mice; conditions: B16F10, 10 mg/kg; mean ± standard error, 20 images
# Description: as §3
# fibroblasts = experiment: Proliferation of fibroblasts (general cell toxicity check); format: cell-based
# LPS from S. typhimurium = experiment: LPS neutralization assay (Limulus amoebocyte lysate, QCL-1000); format: biochemical, Salmonella typhimurium; conditions: read-out: IC50 values (μM) for LPS binding, Salmonella
# Text: as §4, §5
# [6] = test system: LPS from E. coli serotype 055:B5; experiment: as above; format: biochemical
# Text: as §4, §5
# [7] = test system: LPS from E. coli serotype 0111:B4; experiment: as above; format: biochemical; conditions: read-out: IC50 values (μM) for LPS binding, E. coli 0111:B4
# Text: as §4, §5
# [8] = Hematocrit levels, study with B16 tumors in immune competent mice; format: in vivo; conditions: vehicle 51±1.4
# Description: as §6
# LPS from S. marcascens = experiment: LPS neutralization assay (Limulus amoebocyte lysate, QCL-1000); format: biochemical, Serratia marcascens; conditions: read-out: IC50 values (μM) for LPS binding, Serratia
# Text: as §4, §5
# LPS from P. aeruginosa = experiment: as above; format: biochemical, Pseudomonas aeruginosa; conditions: read-out: IC50 values (μM) for LPS binding, P.a.
# Text: as §4, §5
molecule,measurement,setting,value
CN(C)CCNC(=O)COc1c2cccc1Cc1cccc(c1OCC(=O)NCCN(C)C)Cc1cccc(c1OCC(=O)NCCN(C)C)Cc1cccc(c1OCC(=O)NCCN(C)C)C2 [drawing 7],EC % Apoptosis 25 μM,EC [1],No effect
same,"Other cells 25 μM, SCK",SCK,40%
same,"Other cells 25 μM, MA148",MA148,80%
same,EC % total cell death,EC [2],No effect
same,IC50,E. coli J96,> 3.8 µM
same,Hemolysis,Hemolysis (Table 1),None at 10^−5 M
same,"Other cells 25 μM, Fibro",Fibro,0%
same,Solubility,Solubility (Table 1),"H2O up to 30 mg/ml at pH <7.0, r.t."
same,IC50,endothelial cell (EC),2500 nM
"ANIKLSVQMKLFKRHLKWKIIVKLNDGRELSLD [βpep-25, reference compound]",IC50 against B16F10 tumor cells,B16F10 tumor cells,neither demonstrated activity
same,Branch Points,B16F10 tumor vessels,4.5 ± 0.6 pixel counts per image
same,End Points,B16F10 tumor vessels,31.9 ± 3.8 pixel counts per image
same,Vessel Density,B16F10 tumor vessels,14050 ± 1826 pixel counts per image
same,Vessel Length,B16F10 tumor vessels,10.2 ± 1.2 pixel counts per image
same,Apoptosis,MA148 tumor,2418 ± 77 pixel counts per image
same,Branch Points,MA148 tumor vessels,2.0 ± 0.5 pixel counts per image
same,End Points,MA148 tumor vessels,16.6 ± 1.8 pixel counts per image
same,Vessel Density,MA148 tumor vessels,7415 ± 686 pixel counts per image
same,Vessel Length,MA148 tumor vessels,4.9 ± 0.6 pixel counts per image
same,IC50,LPS from K. pneumoniae; Table 2,2 µM
same,IC50,"LPS from K. pneumoniae; Table 3, errors estimated ±30%",2 µM
same,Hematocrit levels ±SD,[3],47±2.8 percentage of red blood cells
same,"signs of toxicity (behavior, weight gain, hematocrit), in words",[4],did not generally show signs of toxicity
same,MA148 tumor inhibition shown previously,[5],60 to 70%
same,Apoptosis,B16F10 tumor,3303 ± 606 pixel counts per image
same,"concentration giving 50% growth inhibition, fibroblasts",fibroblasts,no delectable effects
same,IC50,LPS from S. typhimurium; Table 2,2.5 µM
same,IC50,"LPS from S. typhimurium; Table 3, errors estimated ±30%",2.5 µM
same,IC50,"[6]; Table 2, read-out: IC50 values (μM) for LPS binding, E. coli 055:B4",2.5 µM
same,IC50,"[6]; Table 3, errors estimated ±30%, read-out: IC50 values (μM) for LPS binding, E. coli 055:B5",2.5 µM
same,IC50,[7]; Table 2,2 µM
same,IC50,"[7]; Table 3, errors estimated ±30%",2 µM
same,Hematocrit levels ±SD,[8],52.5±3.5 percentage red blood cells
same,IC50,LPS from S. marcascens; Table 2,4.1 µM
same,IC50,"LPS from S. marcascens; Table 3, errors estimated ±30%",4.1 µM
same,IC50,LPS from P. aeruginosa; Table 2,1.2 µM
same,IC50,"LPS from P. aeruginosa; Table 3, errors estimated ±30%",1.2 µM
